Here are results for eight compounds from EP0474874B1, “Maillard Reaction inhibitor compositions” (Senju Pharmaceutical Co., Ltd., priority 1990, dated 1991).

Data set [1] has as its system furosine formation. Nature of the data set: Inhibition of furosine formation (non-enzymatic glycosylation of BSA with glucose, HPLC). The format is biochemical, bovine. The conditions noted are these: 5 mM test compound, 20 mg/ml BSA, 50 mM glucose, 50 mM phosphate buffer pH 7.3, 4 weeks at 37 °C. How it is done: Sample solutions as shown below were aseptically prepared from bovine serum albumine (No. A-8022, Sigma)(hereinafter referred to as BSA), 50 mM phosphate buffer solution (pH 7.3) and the test compounds listed in Table 1 and aminoguanidine.
The sample solutions were kept for 4 weeks at 37 °C, and the amount of furosine which was formed by non-enzymatic glycosylation was determined by HPLC according to the method of Schleicher et al. [J. Clin. Biochem., 19:81-87 (1981).] Thus, the sample solutions after reaction were dialyzed, and aliquots of 1 ml were lyophylized and then hydrolyzed by the addition of 1 ml of 6 N hydrochloric acid followed by heating at 100 °C for 20 hours. After removal of hydrochloric acid by evaporation, 1 ml of water was added to each sample, and the samples were subjected to filtration using a filter with the pore size of 0.45 µm. The filtrate was used as the sample for HPLC. ODS-120T (Tosoh Corporation) was used for the column and 7 mM phosphoric acid solution was used as the eluant. The absorbance peak whose ratio of peak area at […] was 3.9/1 was regarded as the peak corresponding to furosine.
Upon the area of the peak of furosine of each sample, the inhibition rate of furosine formation by the test compound was calculated as follows. Inhibition rate (%)=(c-d)÷(c-n)×100 [formula] c; peak area of furosine of the control sample d; peak area of furosine of the test sample n; peak area of furosine of the normal sample

The conditions of data set [2]: patient suffering from diabetes mellitus; cited from earlier work.
The subject of data set [3] is Maillard's reaction. As to conditions: in vitro; cited from earlier work.
For data set [4], the system named is AGE formation in arterial walls. As to conditions: diabetic rats, in vivo; cited from earlier work.

Each structure is given as a SMILES string.

Regarding `Nc1ccc(O)cc1C(=O)O` [AB-1, 5-hydroxyanthranilic acid], the “Inhibition rate (%)” value in data set [1] came to 94.1%.
As to `Nc1ccc(C(=O)O)c(O)c1` [AB-5, 4-aminosalicylic acid], in data set [2], the “adverse effect upon treatment” value is on record as “developed hypoglycaemic coma”. The “Inhibition rate (%)” value in data set [1] came out at 70.0%.
`Nc1cc([N+](=O)[O-])ccc1C(=O)O` [AB-3, 4-nitroanthranilic acid]: the “Inhibition rate (%)” value in data set [1] was 47.6%.
Same read-out and setting: under `Nc1cc(C(=O)O)ccc1O` [AB-7, 3-amino-4-hydroxybenzoic acid] stands 60.4%; under `Nc1ccc(O)c(C(=O)O)c1` [AB-4, 5-aminosalicylic acid], 50.7%.
In the case of `Nc1c(O)cccc1C(=O)O` [AB-2, 3-hydroxyanthranilic acid], the “Inhibition rate (%)” value in data set [1] was determined as 69.4%.
On to `Nc1cccc(C(=O)O)c1O` [AB-6, 3-aminosalicylic acid], for which the “Inhibition rate (%)” value in data set [1] is given as 53.4%.
Consider `N=C(N)NN` [aminoguanidine], for which the “inhibition of Maillard's reaction” value in data set [3] is listed as “inhibits Maillard's reaction in vitro”. Besides, the “AGE formation in arterial walls” value in data set [4] is given as “suppresses AGE formation in arterial walls of diabetic rats in vivo”. The “Inhibition rate (%)” value in data set [1] is recorded as 8.0%.
